Columns and labels:
KB cells [1] = test: Endo-replication (polyploidy), microscopy and flow cytometry, KB; format: cell-based, Human; settings: 48 h
Experimental: Cell cycle progression was monitored using flow cytometry. After drug treatment, cells were trypsinized, washed with PBS and fixed in 80% ethanol at −20°C for 1 h. The fixed cells were stained with propidium iodide (containing RNase) at room temperature in the dark for 20 min. The DNA content was determined by a fluorescence-activated cell sorting IV flow cytometer (BD Biosciences, Franklin Lakes, NJ). For each analysis, 10,000 cells were counted and the percentage of cells in each phase was calculated using the ModFit LT software (Verity Software House, Topsham, ME). Experiments were repeated independently at least three times.

KB cells [2] = test: Western blot of Histone H3 phosphorylation and cyclin B1, KB; format: cell-based, Human; settings: 48 h, BPR1K653 12, 24, 36 nM, VX680 170 and 255 nM
Experimental: (§1) Cells were lysed with ice-cold lysis buffer (10 mM Tris, 1 mM EDTA, 1 mM DTT, 60 mM KCl, 0.5% NP-40 and protease inhibitors). […] The resolved proteins were electrophoretically transferred to PVDF membranes (Amersham Life Science, Amersham, U.K.) for Western blot analysis. The membranes were blocked with 5% non-fat milk at room temperature for two hours, washed twice with TBST (1% Tween) and then incubated with either anti-phosphorylated Aurora-A/-B/-C kinase antibody (#2914S, Cell Signaling Technology, Danvers, MA), anti-Aurora-A and -B kinase antibody (#ab1287 and #ab2254, Abcam, Cambridge, MA), anti-phosphorylated Histone H3 antibody (#9701, Cell Signaling Technology, Danvers, MA), anti-Histone H3 antibody (#9715, Cell Signaling Technology, Danvers, MA), anti-Cyclin B1 antibody or anti-Actin antibody (#sc-245 and #sc-130065, Santa Cruz Biotechnology, Santa Cruz, CA) overnight at 4°C. Membranes were washed twice with TBST then subsequently incubated with a horseradish peroxidase-conjugated secondary antibody (Santa Cruz Biotechnology, Santa Cruz, CA) for 1 hour at room temperature. Immunoreactivity was detected by Enhanced Chemiluminescence (Amersham International, Buckingham, U.K.) and autoradiography. Experiments were repeated independently at least two times.

KB cells [3] = test: Clonogenic assay, KB; format: cell-based, Human; settings: Homo sapiens, cervical, p53 wild-type, MDR1 negative (parental), read-out: IC50, anti-proliferative activity
Experimental: (§2) Human lung adenocarcinoma A549 cells and NTUB1 bladder cancer cells were maintained in RPMI supplied with 10% fetal bovine serum. […] KB-derived MRP1-expressing cell line, KB-7D, was maintained in growth medium supplemented with 7 µM VP-16.
(§3) Two hundred cells in logarithmic growth phase were seeded in a 6-well plate. The cells were exposed to various concentrations of the test drugs for a three-generation period. At the end of the incubation period, cells were fixed and stained with 50% ethanol containing 0.5% methylene blue for 30 min. The plates were washed five times with water and allowed to air-dry. Colonies were countered manually. […] Each value represents the average of at least three independent experiments run in triplicates.

KB-VIN10 cells = test: Western blot of Histone H3 phosphorylation and cyclin B1, KB-VIN10; format: cell-based, Human; settings: for Histone H3 phosphorylation and cyclin B1 expression: KB-VIN10, 48 h, BPR1K653 12, 24, 36 nM, VX680 170 and 255 nM
Experimental: as §1

NTU0.017 cells = test: Clonogenic assay, NTU0.017; format: cell-based, Human; settings: for IC50: Homo sapiens, NTU0.017, paclitaxol resistant, MDR1 ↑, read-out: IC50, anti-proliferative activity
Experimental: as §2, §3

[4] = test system: human cervical carcinoma KB xenografts; test: KB xenograft in nude mice; format: in vivo; settings: for decrease in tumor volume: day 30, BPR1K653 15 mg/kg or VX680 30 mg/kg i.p.
Experimental: Under in vivo conditions, tumors were dissected from the euthanized mice and instantly stored under −80°C. Tumor tissue sections were prepared from the use of cryostats (Leica Microsystems, Buffalo Grove, IL), and subsequently fixed with ice-cold methanol. Tissue sections were stained by the TUNEL reagent using Fluorescent (green) In-Situ Apoptosis Detection Kit (catalog number #11684795910, Roche Diagnostic, Mannheim, Germany). Cells were counterstained with DAPI to detect nucleus, and examined by fluorescence microscopy. Amount of green fluorescence labeled (DNA fragmented) cells were counted and percentage of apoptotic cells were calculated as follows: Amount of green fluorescence labeled cells ÷ Total cells available×100. Experiments were repeated independently at least two times.
Male nude mice (5–6-weeks-old) were purchased from the National Laboratory Animal Centre (Taiwan R.O.C.). The animals were s.c. implanted with 5×10^5 KB cells or 1×10^6 KB-VIN10 cells mixed with equal volume of Matrigel (Becton Dickinson) in 0.1 mL at one flank per mouse via a 22-gauge needle. Tumor growth was examined twice a week after implantation, and the volume of tumor mass was measured with an electronic caliper and calculated as 1/2×length×width^2 in mm^3.
BPR1K653 was dissolved completely in a vehicle mixture of DMSO/cremophor/saline (1∶2∶7). Selected dose of BPR1K653 was decided base on the following conditions: 1/2 of the dosage that caused noticeable body weight loss (>10%) in the treated mice during toxicity study. […] The control group (5 mice) was treated with vehicle mixture only. Tumor size and animal body weight were measured every three days after drug treatment. Toxicity was evaluated based on the body weight reduction. At the end of the experiments (tumor size of the control >2000 mm^3), animals were euthanized with carbon dioxide.
Tumors were harvested and instantly stored at −80°C. Frozen cryostat sections were fixed with ice-cold methanol for 10 min. After washing with PBS, endogenous peroxidase was blocked using 3% hydrogen peroxide in TBS for 5 min. Immunostaining process was carried out according to the user's manual of the ABC Peroxidase Staining Kit (Pierce Biotechnology, Rockford, IL). Briefly, the tissues were incubated with a protein-blocking solution for 20 min, and subsequently stained with an anti-phosphorylated Histone H3 (Ser10) polyclonal antibody for 1 hour at room temperature. Then, the samples were incubated with the ABC reagent for 30 min, and subsequently incubated with the metal enhanced DAB substrate. The sections were counterstained with hematoxylin.

Row | Structure (SMILES) | formation of polyploidy (populations >4N) (KB cells [1]) | Histone H3 phosphorylation and cyclin B1 expression (KB cells [2]) | IC50 (KB cells [3]) | Histone H3 phosphorylation and cyclin B1 expression (KB-VIN10 cells) | IC50 (NTU0.017 cells) | Fold difference as compare to the IC50 in the respective parental cells (NTU0.017 cells; NTU0.017 vs NTUB1) | phosphor-Histone H3 positive cells present in tumor tissues ([4]; 15 mg/kg i.p., 24 h after second administration, control 60%) | loss of body weight after treatment ([4]; 15 mg/kg i.p., 5 days/week for 2 weeks, vs control group) | apoptotic cells present in the tumor tissue (TUNEL) ([4]; 15 mg/kg i.p., 12 days post-treatment, control 7%) | decrease in tumor volume ([4]; 5 days/week for 2 weeks) | Histone H3 phosphorylation and cyclin B1 expression, with verapamil (KB-VIN10 cells; KB-VIN10, + verapamil 10 µM)
1 | CN(C)Cc1ccccc1NC(=O)Nc1ccc(CCNc2ncnc3oc(-c4ccccc4)c(Cl)c23)cc1 [BPR1K653] | induced the formation of polyploidy | inhibition of Histone H3 phosphorylation and down-regulation of cyclin B1 expression | 12 ± 4 nM | inhibition of Histone H3 phosphorylation and down-regulation of cyclin B1 expression | 0.01 ± 0.004 µM | 1 fold | 10% | less than 10% | 55% | ~73% | 
2 | Cc1cc(Nc2cc(N3CCN(C)CC3)nc(Sc3ccc(NC(=O)C4CC4)cc3)n2)[nH]n1 [VX680] | induced the formation of polyploidy in KB cells | inhibited the phosphorylation of Histone H3 and the expression of cyclin B1 | 85 ± 31 nM | could not induce the above molecular changes | 6.77 ± 1.08 µM |  |  |  |  | ~68% | restore the sensitivity to VX680

Reference: article PMC3160846 (PLoS ONE, 2011)
